Where a name gives a salt, the structure may show the parent alone. Read-outs that look alike come from different tables or passages of the source.
Legend:
sigma receptors = biological target: T1, sigma receptors (Cavia porcellus, UniProt Q60492); experiment: in vitro affinity for sigma receptors, competition with (+)[3H]SKF10,047; assay type: binding, guinea-pig (cerebral membranes)
T1 construct: sigma receptors of the cerebral membranes of the guinea-pig used in this study; from tissue; host or cells: guinea-pig cerebral membranes
T1 sequence (Q60492 whole entry): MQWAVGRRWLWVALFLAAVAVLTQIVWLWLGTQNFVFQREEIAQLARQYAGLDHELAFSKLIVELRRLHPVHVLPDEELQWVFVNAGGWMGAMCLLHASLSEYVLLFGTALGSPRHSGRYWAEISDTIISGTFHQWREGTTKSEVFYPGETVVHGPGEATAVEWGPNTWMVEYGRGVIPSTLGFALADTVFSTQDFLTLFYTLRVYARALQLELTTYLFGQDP
Protocol: The test is carried out by incubating solutions of suitable concentrations of the products with standard samples of membranes and determining, after filtration, the residual radioactivity of the solution.

[1] = protection from convulsions induced by picrotoxin in mice; assay type: in vivo, "Swiss" male mice; settings: for i.p.: % prot. (inhibition of convulsions induced by picrotoxin): 50 mg/kg i.p., picrotoxin 24 mg/kg i.p. 30 minutes later; for i.p.: % prot. (inhibition of convulsions induced by picrotoxin) / p.o.: % prot. (inhibition of convulsions induced by picrotoxin): * p<0.05, ** p<0.01, *** p<0.001; for p.o.: % prot. (inhibition of convulsions induced by picrotoxin): 100 mg/kg p.o., picrotoxin 24 mg/kg i.p. 60 minutes later; for ED50: Mus musculus
Protocol: b) The psychotropic properties of the compounds were determined by the protection from convulsions induced by picrotoxin in mice, which was realized in accordance with a method derived from that of Krall and coll., "Epilepsia", 1978, 19, p. 409-428.
The administration of picrotoxin to animals causes a convulsive attack characterized by a myoclonic extension syndrome followed by extension of the limbs leading to death of the animals. Certain substances, in particular those which act on the GABA/benzodiazepine/Cl-ionophor complex, provide protection of the animals from these convulsive attacks.
In practice, the study is carried out on groups of 10 "Swiss" male mice weighing about 20 g, to which the product under investigation is administered in aqueous solution either intraperitoneally (i.p.) or orally (p.o.).
An intraperitoneal injection of a solution of picrotoxin in an amount of 24 mg/kg in a volume of 0.2 ml per animal is then performed, either 30 minutes after intraperitoneal administration of the product or 60 minutes after oral administration of the product, the dose of the product injected in this way causing a clonic attack which leads to death of the untreated animals. Under the conditions of the test, suppression of the tonic extension phase is found in the animals treated.
The results are expressed:
either as the percentage of animals protected from this phase under the action of 50 mg/kg compound under investigation administered i.p. or 100 mg/kg p.o.,
or in the ED50 for each of these groups, which is the effective dose of the compound under investigation expressed in mg/kg which protects 50% of animals from this extension phase, the significance value of the results generally being indicated in the following manner: […]

mu receptors = experiment: in vitro affinity for mu receptors; assay type: binding; settings: Table 3; read-out: mu rec. IC50
Protocol: (§1) The "in vitro" study of the affinity of the compounds according to the invention for the three opium receptors is carried out in accordance with the technique described by F. Roman and coll. in J. Pharm. Pharmacol. 1987, 39, p. 404-407 and the study of the affinity for PCP receptors is carried out in accordance with the technique described by Vignon J. and coll. in "Brain Res." 1983; 280, p. 194-7 and 1986; 378, p. 133-41.
(§2) The results shown in table 3 are, for each receptor studied, expressed in IC50, which are the nanomolar concentrations of the dissolved products which are capable of inhibiting 50% of the bonds between the specific radioactive ligand to the receptor under consideration.

delta receptors = biological target: T2, delta receptors (Cavia porcellus, UniProt A0A286XTF2); experiment: in vitro affinity for delta receptors; assay type: binding; settings: Table 3; read-out: delta rec. IC50
T2 construct: from tissue
T2 sequence (A0A286XTF2 1-366): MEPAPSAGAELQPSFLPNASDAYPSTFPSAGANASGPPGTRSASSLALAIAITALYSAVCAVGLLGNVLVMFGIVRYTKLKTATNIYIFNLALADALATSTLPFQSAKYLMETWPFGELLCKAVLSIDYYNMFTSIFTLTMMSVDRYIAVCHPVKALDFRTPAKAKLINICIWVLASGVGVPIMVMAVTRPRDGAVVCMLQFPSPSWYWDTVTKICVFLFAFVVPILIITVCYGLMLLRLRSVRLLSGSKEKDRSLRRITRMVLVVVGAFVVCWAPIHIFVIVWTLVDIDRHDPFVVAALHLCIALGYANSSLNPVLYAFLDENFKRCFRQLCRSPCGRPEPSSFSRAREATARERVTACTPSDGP
Protocol: as §1, §2

kappa receptors = biological target: T3, kappa receptors (Cavia porcellus, UniProt P41144); experiment: in vitro affinity for kappa receptors; assay type: binding; settings: Table 3; read-out: kappa rec. IC50
T3 construct: from tissue
T3 sequence (P41144 whole entry): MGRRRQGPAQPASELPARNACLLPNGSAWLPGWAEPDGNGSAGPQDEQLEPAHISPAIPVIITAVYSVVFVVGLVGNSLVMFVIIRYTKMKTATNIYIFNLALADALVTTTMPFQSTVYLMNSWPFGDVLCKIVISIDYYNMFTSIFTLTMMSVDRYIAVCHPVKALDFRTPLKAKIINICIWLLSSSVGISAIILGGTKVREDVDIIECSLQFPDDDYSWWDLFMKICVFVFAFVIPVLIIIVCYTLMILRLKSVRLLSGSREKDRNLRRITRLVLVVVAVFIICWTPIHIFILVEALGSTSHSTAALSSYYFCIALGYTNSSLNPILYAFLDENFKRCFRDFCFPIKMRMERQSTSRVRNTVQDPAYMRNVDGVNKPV
Protocol: as §1, §2

PCP receptors = experiment: in vitro affinity for phencyclidine (PCP) receptors; assay type: binding; settings: Table 3; read-out: PCP rec. IC50
Protocol: as §1, §2

[2] = antagonism of amnesia caused by scopolamine, passive avoidance test; assay type: in vivo, mice
Protocol: The animal is introduced into the illuminated compartment, and when it moves to the dark compartment it receives an electric current (0.35 mA) through the base until it returns to the illuminated compartment, from where it is then removed.
After 24 hours, the operation is repeated. The mouse is replaced in the apparatus and it avoids entering into the dark compartment. The time which elapses before passage into this compartment is recorded; under the conditions of the experiment, the efficacy of the compounds under investigation in antagonizing the amnesic effect of scopolamine, which is administered intraperitoneally in an amount of 1 mg/kg 30 minutes before the animal is first introduced into the apparatus, can be evaluated.
In control mice which have received only scopolamine, the time elapsed before passage after 24 hours is remarkably lower than that observed in the untreated animals.
The study of the products according to the invention by this method is performed on groups of 18 mice and the products are administered orally on the first day in an amount of 0.25 mg/kg 30 minutes before administration of scopolamine i.p.

[3] = Table 2, (+)[3H]SKF10,047, guinea-pig cerebral membranes, read-out: IC50 (bonding affinity to sigma receptors)
[4] = Table 3, read-out: sigma rec. IC50
[5] = po, 1 h, read-out: p.o.: ED50 (inhibition of convulsions induced by picrotoxin)

Q: With `CCC(CC=Cc1ccccc1)(NC[C@@H]1C[C@H]1c1ccccc1)c1ccccc1` (relative stereo) [Example 3, α-Cinnamyl-α-ethyl-N-(trans-2-phenyl-cyclopropyl)methyl-benzylamine] as the molecule, how does the IC50 (sigma receptors; [3]) read?
A: The IC50 was 0.368 µM.

Q: With `CCC(C[C@@H]1C[C@H]1c1ccccc1)(c1ccsc1)N(C)CC1CC1` (relative stereo) [Example 25, trans-N-Cyclopropylmethyl-α-ethyl-N-methyl-α-(2-phenyl-1-cyclopropylmethyl)-3-thiophenemethylamine] as the molecule, how does the “i.p.: % prot. (inhibition of convulsions induced by picrotoxin)” value [1] read?
A: The value was 50%.

Q: What about the “p.o.: % prot. (inhibition of convulsions induced by picrotoxin)” value [1] of the same molecule?
A: The value was 50%.

Q: For `CCC(CC=Cc1ccccc1)(c1ccccc1)N(C)C[C@@H]1C[C@H]1c1ccccc1` (relative stereo) [Example 6, α-Cinnamyl-α-ethyl-N-methyl-N-(trans-2-phenyl-cyclopropyl)-methyl-benzylamine], which IC50 (sigma receptors; [3]) is on record?
A: The IC50 was 0.246 µM.

Q: With `CCC(CC=Cc1ccccc1)(c1ccco1)N(C)CC1CC1` (stereo not drawn) [Example 20, α-Cinnamyl-N-cyclopropylmethyl-α-ethyl-N-methyl-2-furfurylamine] as the molecule, how does the “p.o.: % prot. (inhibition of convulsions induced by picrotoxin)” value [1] read?
A: The value was 60%.

Q: Which “p.o.: % prot. (inhibition of convulsions induced by picrotoxin)” value [1] does the source give for `CCC(CC=Cc1ccccc1)(NCC1(C)CC1)c1ccccc1` (stereo not drawn) [Example 2, α-Cinnamyl-α-ethyl-N-(1-methylcyclopropyl)-methyl-benzylamine] here?
A: Its value is 90%.

Q: With `CCC(CC=Cc1ccc(Cl)c(Cl)c1)(c1ccc(Cl)cc1)N(C)CC1CC1` (stereo not drawn) [Example 16, α-(3',4'-Dichloro)cinnamyl-N-cyclopropyl-methyl-α-ethyl-N-methyl-p-chlorobenzylamine] as the molecule, how does the “p.o.: % prot. (inhibition of convulsions induced by picrotoxin)” value [1] read?
A: The value was 60%.

Q: With `CC(C)C(CC=Cc1ccccc1)(c1ccccc1)N(C)CC1CC1` (stereo not drawn) [Example 14, α-Cinnamyl-N-cyclopropylmethyl-α-isopropyl-N-methyl-benzylamine] as the molecule, how does the IC50 (mu receptors) read?
A: Its IC50 is 34.2 µM.

Q: What about the IC50 (delta receptors) of the same molecule?
A: The IC50 was greater than 100 µM.

Q: And the IC50 (kappa receptors)?
A: Its IC50 is 76 µM.

Q: What about the IC50 (sigma receptors; [4]) of the same molecule?
A: The IC50 was 0.669 µM.

Q: What about the IC50 (PCP receptors) of the same molecule?
A: The IC50 was 14.2 µM.

Q: Which results are given for `CCC(CC=Cc1ccccc1)(c1ccccc1)N(C)CCC1CC1` (stereo not drawn) [Example 8, α-Cinnamyl-N-cyclopropylethyl-α-ethyl-N-methyl-benzylamine]?
A: IC50 (mu receptors): 2.04 µM; IC50 (delta receptors): 7.55 µM; IC50 (kappa receptors): 1.52 µM; ED50 [1, 5]: 53.6 mg/kg; IC50 (sigma receptors; [3]): 0.021 µM; IC50 (PCP receptors): 25.9 µM

Q: With `NC(=O)CN1CCCC1=O` [piracetam, reference compound] as the molecule, how does the “% antagonism of the amnesia” value ([2]; 2048 mg/kg p.o.) read?
A: Its value is 109%.

Q: What about the “% antagonism of the amnesia” value ([2]; 2048 mg/kg p.o., listed as piracetam) of the same molecule?
A: The value was “about 100%”.

Q: What does the source list for `CN(CC1CC1)C(C)(CC=Cc1ccccc1)c1ccccc1` (stereo not drawn) [Example 13, α-Cinnamyl-N-cyclopropylmethyl-N-α-dimethyl-benzylamine]?
A: IC50 (mu receptors): 10.2 µM; IC50 (delta receptors): 9.37 µM; IC50 (kappa receptors): 8.68 µM; ED50 ([1]; ip, 0.5 h, read-out: i.p.: ED50 (inhibition of convulsions induced by picrotoxin)): 32.5 mg/kg; ED50 [1, 5]: 64.4 mg/kg; IC50 (sigma receptors; [4]): 0.337 µM; IC50 (PCP receptors): 10.5 µM

Q: Which “i.p.: % prot. (inhibition of convulsions induced by picrotoxin)” value [1] does the source give for `CCC(C[C@@H]1C[C@H]1c1ccccc1)(c1ccco1)N(C)CC1CC1` (relative stereo) [Example 23, trans-N-Cyclopropylmethyl-α-ethyl-N-methyl-α-(2-phenyl-1-cyclopropylmethyl)-2-furfurylamine] here?
A: The value was 50%.

Q: Which “% antagonism of the amnesia” value ([2]; 0.25 mg/kg orally, scopolamine 1 mg/kg i.p. 30 minutes later, latency after 24 hours, hydrochloride) does the source give for `CCC(CC=Cc1ccccc1)(c1ccccc1)N(C)CC1CC1` (single isomer, unassigned) [Example 11, (-)-α-Cinnamyl-N-cyclopropyl-methyl-α-ethyl-N-methyl-benzylamine hydrochloride] here?
A: Its value is 38%.

Q: What about the IC50 (delta receptors) of the same molecule?
A: Its IC50 is 41.6 µM.

Q: And the IC50 (kappa receptors)?
A: The IC50 was 5.14 µM.

Q: And the “i.p.: % prot. (inhibition of convulsions induced by picrotoxin)” value ([1]; hydrochloride)?
A: The value was 70%.

Q: What about the IC50 (sigma receptors; IC50 (bonding affinity to sigma receptors), Table 2, (+)[3H]SKF10,047, guinea-pig cerebral membranes) of the same molecule?
A: The IC50 was 0.102 µM.

Q: And the IC50 (sigma receptors; sigma rec. IC50, Table 3)?
A: Its IC50 is 0.21 µM.

Reference: US5034419A, “N-cycloalkylalkylamines, process for their preparation, their use as medicament and their synthesis intermediates” (L'Oreal, priority 1988, dated 1991)
